Measured values taken from patent US20060104969A1, “Compositions and methods for enhancing structural and functional nervous system reorganization and recovery” (Massachusetts Institute of Technology, priority 2004, published 2006).

B1: plasmin (protein, UniProt P00747 20-580; P00747 581-810, looked up)
Plasmin heavy chain A: EPLDDYVNTQGASLFSVTKKQLGAGSIEECAAKCEEDEEFTCRAFQYHSKEQQCVIMAENRKSSIIIRMRDVVLFEKKVYLSECKTGNGKNYRGTMSKTKNGITCQKWSSTSPHRPRFSPATHPSEGLEENYCRNPDNDPQGPWCYTTDPEKRYDYCDILECEEECMHCSGENYDGKISKTMSGLECQAWDSQSPHAHGYIPSKFPNKNLKKNYCRNPDRELRPWCFTTDPNKRWELCDIPRCTTPPPSSGPTYQCLKGTGENYRGNVAVTVSGHTCQHWSAQTPHTHNRTPENFPCKNLDENYCRNPDGKRAPWCHTTNSQVRWEYCKIPSCDSSPVSTEQLAPTAPPELTPVVQDCYHGDGQSYRGTSSTTTTGKKCQSWSSMTPHRHQKTPENYPNAGLTMNYCRNPDADKGPWCFTTDPSVRWEYCNLKKCSGTEASVVAPPPVVLLPDVETPSEEDCMFGNGKGYRGKRATTVTGTPCQDWAAQEPHRHSIFTPETNPRAGLEKNYCRNPDGDVGGPWCYTTNPRKLYDYCDVPQCAAPSFDCGKPQVEPKKCPGR
Plasmin light chain B: VVGGCVAHPHSWPWQVSLRTRFGMHFCGGTLISPEWVLTAAHCLEKSPRPSSYKVILGAHQEVNLEPHVQEIEVSRLFLEPTRKDIALLKLSSPAVITDKVIPACLPSPNYVVADRTECFITGWGETQGTFGAGLLKEAQLPVIENKVCNRYEFLNGRVQSTELCAGHLAGGTDSCQGDSGGPLVCFEKDKYILQGVTSWGLGCARPNKPGVYVRVSRFVTWIEGVMRNN
modifications: Plasmin
notes: serine protease whose major substrate is fibrin (Sigma)

Columns and labels:
[1] = system: rats with middle cerebral artery occlusion (MCAO); assay: Forelimb inhibition behavioral test after middle cerebral artery occlusion (MCAO); assay type: in vivo; settings: intraventricular infusion 2 or 10 μg/day for 7 days, started 2 days after MCAO
Protocol: Twenty rats were trained on a battery of behavioral tasks until they achieved an asymptotic level of competence. Rats then received occlusion of the middle cerebral artery (MCAO) according to standard procedures. […] At the time of MCAO surgery, 10 of the 20 rats were also implanted with an osmotic mini-pump (Alzet model 2001, 7 day pump with […] and 1.0 μL/hour infusion) for intraventricular infusion contralateral to the site of the MCAO. The mini-pumps were filled with human two-chain tissue plasminogen activator (tPA; American Diagnostica, Inc.) at two different concentrations: 5 animals received 2 μg/day and 5 animals received 10 μg/day. tPA treatment was initiated 2 days following MCAO and was maintained for 7 days. Control and tPA-treated rats were subsequently tested weekly for behavioral recovery.
Initial results regarding one of the behavioral tests, forelimb inhibition, are striking. Normal animals rarely use their forelimbs while swimming across a test basin, a phenomenon referred to as “inhibition”. After stroke, this inhibition is reduced, so that forelimb use increases. […] On other tests, there was less difference between tPA treated animals and controls though this and other data is still being analyzed.

[2] = tPA activity in the solution remaining in implanted minipumps; assay type: physicochemical; settings: rat body temperature; delivered from a minipump reservoir
Protocol: Three days post-operatively, a second operation was conducted at T8-T9 for a bolus micro-injection of 10 μg of tPA (human two-chain tissue plasminogen activator; American Diagnostica, Inc.) reconstituted from lyophilized powder to 10 μg/10 μL) into three of the six rats. Following the bolus injection, an osmotic minipump (Alzet Model 2002: 14 day pump) (Durect Corp., Cupertino, Calif.) loaded with tPA (200 μL total volume, delivering 0.5 μL/hour, 10 μg tPA/day) was implanted at the side of injury and delivered tPA for 10 consecutive days. At the 6th post-operative week, BDA and Fluorogold injections were made in cortex to assess the extent of corticospinal tract regrowth and reconnection, and at the 10th post-operative week, animals were perfused and their spinal cords were removed for histological analysis. Implanted minipumps were saved for analysis of tPA activity in the remaining solution.

[3] = system: spinal cord injury epicenter tissue; assay: Histological analysis of the spinal cord injury epicenter (hematoxylin and eosin, solvent blue); assay type: in vivo, Sprague-Dawley rats
From the text: FIG. 9 presents micrographs showing the overall microscopic difference in injury epicenter pathology between rats receiving tPA or vehicle in the area of residual total tissue (hematoxylin and eosin stain).
FIG. 10 presents micrographs showing the overall difference between rats receiving tPA (left panel) or vehicle (right panel) in the typical cross-sectional area of residual total white matter (WM) at the injury epicenter (e.g. WM+hypomyelinated WM). […] In contrast, SB stain in the vehicle treated spinal cord was much weaker, indicating much lower quantity presence of myelin in the tissue.
Sections were stained with solvent blue [SB]/hematoxylin and eosin as described in Teng and Wrathall, 1997.
Three days post-operatively, a second operation was conducted at T8-T9 for a bolus micro-injection of 10 μg of tPA (human two-chain tissue plasminogen activator; American Diagnostica, Inc.) reconstituted from lyophilized powder to 10 μg/10 μL) into three of the six rats. Following the bolus injection, an osmotic minipump (Alzet Model 2002: 14 day pump) (Durect Corp., Cupertino, Calif.) loaded with tPA (200 μL total volume, delivering 0.5 μL/hour, 10 μg tPA/day) was implanted at the side of injury and delivered tPA for 10 consecutive days. […]

[4] = system: rats with spinal cord injury (SCI); assay: Recovery of locomotor function (BBB scale) after T10 contusive spinal cord injury; assay type: in vivo, Sprague-Dawley rats
From the text: FIGS. 8A and 8B show the effect of tPA on recovery of locomotor function graded on the BBB scale (y-axis; Basso et al., 1995 J. Neurotrauma) that ranges from 21 in normal rats to 0 in rats with complete hind limb paralysis. FIG. 8A presents a time course in which data points represent the group average±SEM (n=3/group) scored at different time points post T10 contusive injury. […] The dip of the curves starting at week 7 in both of the experimental groups was caused by the intra-cerebral cortex injections of axonal tract tracer BDA which was done at week 6 after injury. FIG. 8B presents a bar graph showing results of a second experiment in which data points represent the group average±SEM (n=7/group).
In a first set of experiments, 6 female Sprague-Dawley rats were anesthetized and spinal cord injury (SCI) was induced at TIO by using the New York University impactor with a 10 gm weight and a 12.5 mm weight drop. Behavioral tests were conducted on the first post-operative day and then weekly. The BBB (Basso, Beattie, Bresnahan) behavioral test was used to examine hind limb reflexes as well as coordinated use of the hind limbs (Basso et al., 1995; Basso, et al., 1996). This “BBB” scale has been adopted by the Multicenter Animal Spinal Cord Injury Study and by other workers in the field. […]

[5] = system: dendritic spines of layer V pyramidal neurons in visual cortex slices; assay: Spine motility in acute visual cortex slices before and after enzyme application (two-photon imaging); assay type: cell-based, mice; settings: p28 non-deprived slices; 45 minute enzyme application; tPA 0.5 μg/mL without exogenous plasminogen, plasmin 0.2 U/mL; p<0.0001
Protocol: Two photon imaging. Mice were prepared for in vivo imaging and imaged as described previously (Majewska and Sur, 2003). Briefly, primary visual cortex was identified using stereotaxic coordinates and either a small craniotomy was drilled in this area, or the skull was thinned without making a craniotomy. Imaging was performed with a custo m-made two-photon microscope consisting of a Ti:S laser (Tsunami, Spectra-physics, Menlo Park, Calif.) pumped by a 10W solid state source (Millennia, Spectra-physics) coupled to a modified Fluoview confocal scanhead (Olympus, Melville, N.Y.). Superficial dendrites were initially identified with wide-field epi-fluorescence illumination, and were subsequently imaged using a 60×, 0.9 N.A. lens with digital zoom (5-10×). Volumetric z-stacks were typically collected with a 800×600 acquisition window with 0.5-1 μm z-steps every five minutes over two hours. […]
Z-stack images were exported to MATLAB (Mathworks, Natick, Mass.) and processed using custom algorithms. Spine motility was analyzed on two-dimensional projections in ImageJ (NIH, Bethesda, Md.), where motility was defined as the average change in spine length per unit time (Lendvai et al., 2000; Majewska and Sur, 2003). […]

axon growth = settings: cited from earlier work
[6] = system: dendritic spines in visual cortex slices contralateral to the deprived eye; assay: Spine motility in visual cortex slices after monocular deprivation, followed by plasmin application (occlusion test); assay type: cell-based, mice
Protocol: Mice (C57/B16) expressing GFP (strain GFP-M) or YFP (strain YFP-H) in a subset of their cortical neurons (principally layer V pyramidal neurons) (Feng, G., et al., 2000) were anesthetized at postnatal days 26 or 40 and maintained in deep anesthesia using isoflurane. Monocular deprivation was performed by scoring the eyelids and then sealing them shut with tissue adhesive (Vetbond, 3M, St. Paul, Minn.). Mice were checked over the next 2-3 days to ensure that the eye remained closed. A total of 18 mice were used in the in vivo experiments (6 control, 4 deprived at p28; 4 control, 4 deprived at p42) and 24 mice were used in the slice experiments (15 control, 9 deprived).
Z-stack images were exported to MATLAB (Mathworks, Natick, Mass.) and processed using custom algorithms. Spine motility was analyzed on two-dimensional projections in ImageJ (NIH, Bethesda, Md.), where motility was defined as the average change in spine length per unit time (Lendvai et al., 2000; Majewska and Sur, 2003). Spine turnover was rarely observed in single imaging sessions. All values are presented as mean±standard error of the mean and all statistical analyses were performed using either a parametric t-test statistic for populations of monocularly deprived and control spines, or a parametric paired t-test statistic for enzymatic treatments.
Slice preparation and enzyme application. […]

| increase in spine motility [5] [%] | Molecule | forelimb use while swimming (forelimb inhibition) [1] | time for which tPA maintains enzymatic activity [2] | appearance of the contusion site, hematoxylin and eosin staining ([3]; in comparison to control) | integrity of residual white matter at the injury epicenter, solvent blue stain ([3]; versus vehicle) | final score on the BBB test ([4]; after 10 weeks of recovery, first experiment, n=3/group, 10 μg bolus then 10 μg tPA/day for 10 days by minipump, baseline 21) | BBB scores relative to control animals ([4]; second experiment, n=7/group, tPA delivered for 7 days) | effective dose for influencing axon growth (axon growth) | spine motility after additional plasmin application, superficial layers ([6]; regions where motility is already upregulated, n=88, p>0.5) | spine motility after plasmin treatment, middle regions ([6]; regions where motility is unchanged by deprivation, n=60, p<0.0001) |
| --- | --- | --- | --- | --- | --- | --- | --- | --- | --- | --- |
| 17 | tissue plasminogen activator [tPA] | much less than control animals | up to 10 days | remarkably clean | significantly protected the integrity of the residual white matter | ~9 | improved BBB scores | – | – | – |
| – | O=c1onc2cnc3ccccc3n12 [ODQ] | – | – | – | – | – | – | about 10 uM | – | – |
| 21 | B1 | – | – | – | – | – | – | – | unaffected | significantly increased |
